Assay results as given in patent US20240239788A1, “SMALL MOLECULE INHIBITORS OF KRAS G12D MUTANT” (Merck Sharp & Dohme LLC, priority 2021, published 2024).
Structures can show the parent of a compound that is named as a salt.

Assays:
[1] = tested on: AsPC-1 cells containing homozygous KRAS-G12D activating mutation; assay: Cellular phospho-ERK assay (Examples 1a-106); format: cell-based; details: AsPC-1 cells, 2 hours, ratio of p-Erk vs total Erk, read-out: IC50 (nM) pERK (Cell)
Excerpt: 5% CO? overnight. […] Assay plates were read on a EnVision Multimode Plate Reader (PerkinElmer) and the ratio of p-Erk vs total Erk in each well was used as the final readout.

[2] = molecular target: KRAS protein containing G12D mutation (Homo sapiens (Human), UniProt P01116, G12D); assay: SOS-catalyzed nucleotide exchange assay (GNE), TR-FRET; format: biochemical; details: biotinylated KRAS G12D, SOS and GTP, 60-minute incubation
Sequence of KRAS protein containing G12D mutation (P01116 other isoform, or with tags, fused parts or gaps G12D (already in the parent)): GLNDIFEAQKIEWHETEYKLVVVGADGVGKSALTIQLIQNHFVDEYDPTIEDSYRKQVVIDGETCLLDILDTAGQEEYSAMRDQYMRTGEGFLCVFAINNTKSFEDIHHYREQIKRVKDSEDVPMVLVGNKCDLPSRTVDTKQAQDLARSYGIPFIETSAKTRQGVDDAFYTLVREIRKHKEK
Method: Compounds are added to this complex and then after a 60-minute incubation time the mixture is treated with SOS and unlabeled GTP. Small molecule inhibitors stabilize the Bodipy-GDP complex whereas the untreated protein rapidly exchanges Bodipy-GDP for unlabeled GTP resulting in reduced TR-FRET signal.
This solution is referred to as biotinylated KRAS G12D stock solution.

[3] = tested on: AsPC-1 cells containing homozygous KRAS-G12D activating mutation; assay: Cellular phospho-ERK assay with 10% FBS (Examples 107a-256); format: cell-based
Method: 5% CO2 for 2 hours. […] Assay plates were read on a EnVision Multimode Plate Reader (PerkinElmer) and the ratio of p-Erk vs total Erk in each well was used as the final readout.

[4] = Homo sapiens, ASPC1, 2 h, read-out: IC50 (nM) pERK (cell with FBS 10%), AsPC-1 cells, 10% fetal bovine serum, 2 hours, ratio of p-Erk vs total Erk

`CN(C)C[C@@]1(COc2nc(N3C[C@H]4CC[C@@](C)(C3)N4)c3cc(Cl)c(-c4c(F)cc(F)c5ccc(N)nc45)c(F)c3n2)CC1(F)F` (single isomer, unassigned) [92a] was tested, and the IC50 [1] was 13200 nM and the IC50 [2] was 11100 nM.

Compound `C#Cc1cccc2cc(O)cc(-c3c(F)cc4c(N5C[C@H]6CC[C@@](C)(C5)N6)nc(OCC5(CN6CC[C@@H](F)C6)CC5)nc4c3F)c12` (single isomer, unassigned) [103b, TFA] has an IC50 ([1]; TFA) of 2480 nM and an IC50 [2] of 458 nM.

For `Cc1c(Cl)cc2[nH]nc(C)c2c1-c1c(F)cc2c(N3CC4CCC(C3)N4)nc(OCC3(CN4CC[C@@H](F)C4)CC3)nc2c1F` (single isomer, unassigned) [Ex 71a], the IC50 [1] was 505 nM and the IC50 [2] was 18.9 nM.

`Cc1c(Cl)cc2[nH]nc(C)c2c1-c1c(F)cc2c(N3CC4CCC(C3)N4)nc(OCC3(CN4CC[C@@H](F)C4)CC3)nc2c1F` (single isomer, unassigned) [Ex 71b] gave an IC50 [1] of 4240 nM and an IC50 [2] of 1340 nM.

`Cc1cc2[nH]ncc2c(-c2c(F)cc3c(N4C[C@H]5CC[C@@](C)(C4)N5)nc(OC[C@]4(CN(C)C)CC4(F)F)nc3c2F)c1C(F)(F)F` (single isomer, unassigned) [Ex 76b] showed an IC50 [1] of 4530 nM and an IC50 [2] of 597 nM.

Compound `Cc1cc2[nH]ncc2c(-c2c(F)cc3c(N4C[C@H]5CC[C@@](C)(C4)N5)nc(OCC4(CN5CC[C@@H](F)C5)CC4)nc3c2F)c1C(F)(F)F` (single isomer, unassigned) [Ex 80b] has an IC50 [1] of 5970 nM and an IC50 [2] of 1320 nM.

Work on `Oc1cc(-c2c(F)cc3c(N4CC5CC(F)C(C4)N5)nc(OCC4(CN5CCOCC5)CC4)nc3c2F)c2ccccc2c1` (single isomer, unassigned) [Ex. 3a, 4-(6,8-difluoro-4-(6-fluoro-3,8-diazabicyclo[3.2.1]octan-3-yl)-2-((1-(morpholinomethyl)cyclopropyl)methoxy)quinazolin-7-yl)naphthalen-2-ol] yielded an IC50 [1] of 3610 nM and an IC50 [2] of 506 nM.

With `Oc1cc(-c2c(F)cc3c(N4CC5CC(F)C(C4)N5)nc(OCC4(CN5CCOCC5)CC4)nc3c2F)c2ccccc2c1` (single isomer, unassigned) [Ex. 3b, 4-(6,8-difluoro-4-(6-fluoro-3,8-diazabicyclo[3.2.1]octan-3-yl)-2-((1-(morpholinomethyl)cyclopropyl)methoxy)quinazolin-7-yl)naphthalen-2-ol] the IC50 [1] was 8240 nM and the IC50 [2] was 2160 nM.

`C#Cc1cccc2cc(O)cc(-c3c(F)cc4c(N5C[C@H]6CC[C@@](C)(C5)N6)nc(OC[C@]5(CO)CC5(F)F)nc4c3F)c12` (single isomer, unassigned) [Ex. 90] gave an IC50 ([1]; Homo sapiens, ASPC1, 2 h) of 564 nM and an IC50 [2] of 0.565 nM.

With `C[C@]12CC[C@H](CN(c3nc(OCC4(CN5CCOCC5)CC4)nc4c(F)c(-c5c(F)cc(F)c6ccc(N)nc56)c(Cl)cc34)C1)N2` (single isomer, unassigned) [Ex. 91a] the IC50 [1] was 17600 nM and the IC50 [2] was 11100 nM.

`C[C@]12CC[C@H](CN(c3nc(OCC4(CN5CCOCC5)CC4)nc4c(F)c(-c5c(F)cc(F)c6ccc(N)nc56)c(Cl)cc34)C1)N2` (single isomer, unassigned) [Ex. 91b] gave an IC50 [1] of 4160 nM and an IC50 [2] of 1020 nM.

`Cc1cc2[nH]ncc2c(C2Cc3nc(OC[C@]4(CN(C)C)CC4(F)F)nc(N4C[C@H]5CC[C@@](C)(C4)N5)c3C(=O)O2)c1C(F)(F)F` (single isomer, unassigned) [Ex. 96a] gave an IC50 [1] of 20800 nM and an IC50 [2] of 1280 nM.

`CN(C)C1CC[C@H]2C[C@@]12COc1nc(N2C[C@H]3CC[C@@](C)(C2)N3)c2cc(F)c(-c3cc(O)cc4ccccc34)c(F)c2n1` (single isomer, unassigned) [Example 12a] gave an IC50 [1] of 396 nM and an IC50 [2] of 1.89 nM.

`CN(C)C1CC[C@H]2C[C@@]12COc1nc(N2C[C@H]3CC[C@@](C)(C2)N3)c2cc(F)c(-c3cc(O)cc4ccccc34)c(F)c2n1` (single isomer, unassigned) [Example 12b] was tested, and the IC50 [1] was 841 nM and the IC50 [2] was 2.07 nM.

With `CN(C)CC1(COc2nc(N3CC4CC(O)C(C3)N4)c3cc(Cl)c(-c4cc(O)cc5ccccc45)c(F)c3n2)CC1` (single isomer, unassigned) [Example 19a] the IC50 ([1]; Homo sapiens, ASPC1, 2 h) was 50800 nM and the IC50 [2] was 1180 nM.

For `CN(C)CC1(COc2nc(N3CC4CC(O)C(C3)N4)c3cc(Cl)c(-c4cc(O)cc5ccccc45)c(F)c3n2)CC1` (single isomer, unassigned) [Example 19b], the IC50 [1] was 50800 nM and the IC50 [2] was 1790 nM.

`CN(C)CC1(COc2nc(N3CC4CC(O)C(C3)N4)c3cc(Cl)c(-c4cc(O)cc5ccccc45)c(F)c3n2)CC1` (single isomer, unassigned) [Example 22a, 3-(6-chloro-2-((1-((dimethyl-amino)methyl)cyclo-propy)methoxy)-8-fluoro-7-(3-hydroxy-naphthalen-1-yl)quinazolin-4-yl)-3,8-diazabicyclo[3.2.1]oc tan-6-ol] was tested, and the IC50 [1] was 50800 nM and the IC50 [2] was 5090 nM.

Work on `C[C@@]12CC[C@H](CN(c3nc(OC[C@@]45CCCN4C[C@H](F)C5)nc4c(F)c(-c5cccc6ccc(F)c(F)c56)c(F)cc34)C1)N2` [compound 197, 7-(7,8-difluoronaph-thalen-1-yl)-6,8-difluoro-2-(((2R,7aS)-2-fluorotetrahydro-1H-pyrrolizin-7a(5H)-yl)-methoxy)-4-((1S,5R)-1-methyl-3,8-diaza-bicyclo[3.2.1]octan-3-yl)quinazoline] yielded an IC50 [3, 4] of 4470 nM and an IC50 [2] of 52.4 nM.

With `COCCNC[C@@]1(COc2nc(N3C[C@H]4CC[C@@](C)(C3)N4)c3cc(F)c(-c4c(C(F)(F)F)c(C)cc5[nH]ncc45)c(F)c3n2)CC1(F)F` [compound 205, (1S,5R)-3-(2-(((R)-2,2-difluoro-1-(((2-methoxyethyl)amino)methyl)cyclopropyl)methoxy)-6,8-difluoro-7-(6-methyl-5-(trifluoromethyl)-1H-indazol-4-yl)quinazolin-4-yl)-1-methyl-3,8-diazabicyclo[3.2.1]octan-8-ium 2,2,2-trifluoroacetate] the IC50 [3, 4] was 9380 nM and the IC50 [2] was 93.9 nM.

`CCc1cnn2cc(O)cc(-c3c(F)cc4c(N5C[C@H]6CC[C@@](C)(C5)N6)nc(OC[C@@]56CCCN5C[C@H](F)C6)nc4c3F)c12` [compound 229, 4-(6,8-difluoro-2-(((2R,7aS)-2-fluorotetrahydro-1H-pyrrolizin-7a(5H)-yl)methoxy)-4-((1S,5R)-1-methyl-3,8-diazabicyclo[3.2.1]octan-3-yl)quinazolin-7-yl)-3-ethylpyrazolo[1.5-a]pyridin-6-ol] gave an IC50 ([3]; read-out: IC50 (nM) pERK (cell with FBS 10%), AsPC-1 cells, 10% fetal bovine serum, 2 hours, ratio of p-Erk vs total Erk) of 1740 nM and an IC50 [2] of 98.5 nM.

With `C#Cc1cccc2nc(N)nc(-c3c(F)cc4c(N5C[C@H]6CC[C@@H](C5)N6)nc(OC[C@@]56CCCN5C[C@H](F)C6)nc4c3F)c12` [compound 235, 4′-((1R,5S)-3,8-diazabicyclo[3.2.1]octan-3-yl)-5-ethynyl-6′,8′-difluoro-2′-(((2R,7aS)-2-fluorotetrahydro-1H-pyrrolizin-7a(5H)-yl)methoxy)-[4,7′-biquinazolin]-2-amine] the IC50 [3, 4] was 910 nM and the IC50 [2] was 91.7 nM.

Compound `[2H]c1c([2H])c(C#C)c2c(-c3c(F)cc4c(N5C[C@H]6CC[C@@](C)(C5)N6)nc(OC[C@@]56CCCN5C[C@H](F)C6)nc4c3F)c([2H])c([2H])c([2H])c2c1[2H]` [compound 241, 7-(8-ethynylnaphthalen-1-yl-2,3,4,5,6,7-d6)-6,8-difluoro-2-(((2R,7aS)-2-fluorotetrahydro-1H-pyrrolizin-7a(5H)-yl)methoxy)-4-((1S,5R)-1-methyl-3,8-iazabicyclo[3.2.1]octan-3-yl)quinazoline, 2TFA] has an IC50 [3, 4] of 1760 nM and an IC50 [2] of 8.63 nM.

`C[C@]12CCC(CN(c3nc(OC[C@@]45CCCN4C[C@H](F)C5)nc4c(F)c(-c5cc(O)cc(Cl)c5OC(F)(F)F)c(F)cc34)C1)N2` [compound 244, 3-chloro-5-(6,8-difluoro-2-(((2RS,7aS)-2-fluorotetrahydro-1H-pyrrolizin-7a(5H)-yl)methoxy)-4-((1S,5R)-1-methyl-3,8-diazabicyclo[3.2.1]octan-3-yl)quina-zolin-7-yl)-4-(trifluoromethoxy)phenol] showed an IC50 [3, 4] of 161 nM and an IC50 [2] of 3.7 nM.

In the case of `Cc1cc2[nH]nc(C#N)c2c(-c2c(F)cc3c(N4C[C@H]5CC[C@@H](C4)N5)nc(OC[C@@]45CCCN4C[C@H](F)C5)nc3c2F)c1C(F)F` [compound 254, 4-(4-((1R,5S)-3,8-diazabicyclo[3.2.1]octan-3-yl)-6,8-difluoro-2-(((2R,7aS)-2-fluorotetrahydro-1H-pyrrolizin-7a(5H)-yl)methoxy)quinazolin-7-yl)-5-(difluoromethyl)-6-methyl-1H-indazole-3-carbonitrile], the IC50 [3, 4] is reported as 80.3 nM and the IC50 [2] is reported as 0.77 nM.

Work on `Cc1cc2[nH]nc(C#N)c2c(-c2c(F)cc3c(N4C[C@H]5CC[C@@H](C4)N5)nc(OC[C@@]45CCCN4C[C@H](F)C5)nc3c2F)c1OC(F)(F)Cl` [compound 255, 4-(4-((1R,5S)-3,8-diazabicyclo[3.2.1]octan-3-yl)-6,8-difluoro-2-(((2R,7aS)-2-fluorotetrahydro-1H-pyrrolizin-7a(5H)-yl)methoxy)quinazolin-7-yl)-5-(chlorodifluoromethoxy)-6-methyl-1H-indazole-3-carbonitrile] yielded an IC50 [3, 4] of 58.9 nM and an IC50 [2] of 0.79 nM.
